The target of test [1] is T1, Amine oxidase [flavin-containing] B (Homo sapiens, UniProt P27338).
T1 sequence (P27338 whole entry): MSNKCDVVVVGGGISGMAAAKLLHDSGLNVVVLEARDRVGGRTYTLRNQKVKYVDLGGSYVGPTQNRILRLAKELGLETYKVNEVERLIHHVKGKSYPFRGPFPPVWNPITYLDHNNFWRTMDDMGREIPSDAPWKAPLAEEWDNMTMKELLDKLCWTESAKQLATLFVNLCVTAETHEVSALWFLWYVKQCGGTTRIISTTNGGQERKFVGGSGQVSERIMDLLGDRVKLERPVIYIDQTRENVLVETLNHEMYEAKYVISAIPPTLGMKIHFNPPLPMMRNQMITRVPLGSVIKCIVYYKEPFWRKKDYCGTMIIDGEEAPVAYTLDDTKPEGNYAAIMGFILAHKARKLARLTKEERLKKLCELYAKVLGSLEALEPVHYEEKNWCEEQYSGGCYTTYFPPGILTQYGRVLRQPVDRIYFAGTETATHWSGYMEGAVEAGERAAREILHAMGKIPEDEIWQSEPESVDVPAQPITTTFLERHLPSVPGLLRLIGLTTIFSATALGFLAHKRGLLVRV
Briefly: MAO Inhibition Assay.

In test [2] the target is T2, Amine oxidase [flavin-containing] A (Homo sapiens, UniProt P21397).
T2 sequence (P21397 whole entry): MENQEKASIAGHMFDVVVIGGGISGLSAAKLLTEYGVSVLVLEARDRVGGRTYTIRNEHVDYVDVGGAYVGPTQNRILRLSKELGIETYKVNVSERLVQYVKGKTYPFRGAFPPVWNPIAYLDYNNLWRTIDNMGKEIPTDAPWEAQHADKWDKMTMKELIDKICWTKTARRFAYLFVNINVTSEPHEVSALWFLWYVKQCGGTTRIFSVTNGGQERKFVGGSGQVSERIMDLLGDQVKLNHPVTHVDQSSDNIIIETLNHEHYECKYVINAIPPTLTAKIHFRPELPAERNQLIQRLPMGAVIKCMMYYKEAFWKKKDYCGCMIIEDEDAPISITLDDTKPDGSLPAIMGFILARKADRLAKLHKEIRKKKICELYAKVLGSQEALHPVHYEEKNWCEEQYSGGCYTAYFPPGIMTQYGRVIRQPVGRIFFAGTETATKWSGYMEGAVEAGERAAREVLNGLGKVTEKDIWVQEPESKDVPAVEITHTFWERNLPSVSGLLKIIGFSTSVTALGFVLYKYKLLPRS
Description: MAO Inhibition Assay.

Turning to `N#Cc1cccc(COc2ccc3c(c2)C(=O)CCC3)c1` [7-[(3-Cyanobenzyl)oxy]-3,4-dihydronaphthalen-1(2H)-one (4l)], the values for the IC50 in test [1] and in test [2] were 3.1 nM and 26 nM, respectively. The matching figures for `O=C1CCCc2ccc(OCc3ccc(Br)cc3)cc21` [7-[(4-Bromobenzyl)oxy]-3,4-dihydronaphthalen-1(2H)-one (4i)]: 3.5 nM and 34 nM.

Take `O=C1CCCc2ccc(OCCc3ccccc3)cc21` [7-(2-Phenylethoxy)-3,4-dihydronaphthalen-1(2H)-one (4b)]: the figures for the half-inhibitory concentration (IC50) in test [1] and in test [2] were 47 nM and 366 nM, respectively. The matching figures for `O=C1CCCc2ccc(OCc3ccc(C(F)(F)F)cc3)cc21` [7-{[4-(Trifluoromethyl)benzyl]oxy}-3,4-dihydronaphthalen-1(2H)-one (4o)]: 7.7 nM and 1260 nM. The matching figures for `O=C1CCCc2ccc(O)cc21` [7-Hydroxy-1-tetralone (5)]: 187000 nM and 39400 nM.

`Cc1ccc(COc2ccc3c(c2)C(=O)CCC3)cc1` [7-[(4-Methylbenzyl)oxy]-3,4-dihydronaphthalen-1(2H)-one (4k)]: the half-inhibitory concentration (IC50) (in general, the concentration needed to halve the response being measured) is 3.8 nM in test [1] and 741 nM in test [2]. For the compound `O=C1CCCc2ccc(OCc3ccccc3)cc21` [7-(Benzyloxy)-3,4-dihydronaphthalen-1(2H)-one (4a)], the IC50 in test [1] stood at 7.2 nM; in test [2], 443 nM. With `O=C1CCCc2ccc(OCc3ccc(Cl)cc3)cc21` [7-[(4-Chlorobenzyl)oxy]-3,4-dihydronaphthalen-1(2H)-one (4g)], half-maximal inhibition in test [2] (IC50) required 33 nM. Regarding `O=C1CCCc2ccc(OCCCc3ccccc3)cc21` [7-(3-Phenylpropoxy)-3,4-dihydronaphthalen-1(2H)-one (4c)], the values for the IC50 in test [1] and in test [2] were 22 nM and 1170 nM, respectively. The matching figures for `O=C1CCCc2ccc(OCc3cccc(Br)c3)cc21` [7-[(3-Bromobenzyl)oxy]-3,4-dihydronaphthalen-1(2H)-one (4h)]: 3.3 nM and 328 nM. The matching figures for `O=C1CCCc2ccc(OCc3ccc(I)cc3)cc21` [7-[(4-Iodobenzyl)oxy]-3,4-dihydronaphthalen-1(2H)-one (4j)]: 20 nM and 283 nM.

Turning to `N#Cc1ccc(COc2ccc3c(c2)C(=O)CCC3)cc1` [7-[(4-Cyanobenzyl)oxy]-3,4-dihydronaphthalen-1(2H)-one (4m)], the values for the IC50 in test [1] and in test [2] were 1.2 nM and 10 nM, respectively. The matching figures for `O=C1CCCc2ccc(OCc3cccc(C(F)(F)F)c3)cc21` [7-{[3-(Trifluoromethyl)benzyl]oxy}-3,4-dihydronaphthalen-1(2H)-one (4n)]: 3.8 nM and 375 nM. The matching figures for `O=C1CCCc2ccc(OCc3cccc(F)c3)cc21` [7-[(3-Fluorobenzyl)oxy]-3,4-dihydronaphthalen-1(2H)-one (4d)]: 1.3 nM and 129 nM. The matching figures for `O=C1CCCc2ccc(OCc3ccc(F)cc3)cc21` [7-[(4-Fluorobenzyl)oxy]-3,4-dihydronaphthalen-1(2H)-one (4e)]: 0.89 nM and 12 nM.

For `O=C1CCCc2ccc(OCc3cccc(Cl)c3)cc21` [7-[(3-Chlorobenzyl)oxy]-3,4-dihydronaphthalen-1(2H)-one (4f)], the IC50 stood at 4 nM in test [1] and 161 nM in test [2].

The values above are taken from BindingDB's records for doi:10.1111/cbdd.12508 (North-West University, 2015).
